According to BindingDB's records for patent US20240101559 (Dana-Farber Cancer Institute, 2024):

Molecular target: Tyrosine-protein kinase JAK2 (Homo sapiens, UniProt O60674)
Assay: JAK2 Z-Lyte Biochemical Assay
Experimental: The JAK2 Z-Lyte biochemical assay was performed according to manufacturer's instructions (Life Technologies).

Tyrosine-protein kinase JAK2, sequence (O60674 whole entry): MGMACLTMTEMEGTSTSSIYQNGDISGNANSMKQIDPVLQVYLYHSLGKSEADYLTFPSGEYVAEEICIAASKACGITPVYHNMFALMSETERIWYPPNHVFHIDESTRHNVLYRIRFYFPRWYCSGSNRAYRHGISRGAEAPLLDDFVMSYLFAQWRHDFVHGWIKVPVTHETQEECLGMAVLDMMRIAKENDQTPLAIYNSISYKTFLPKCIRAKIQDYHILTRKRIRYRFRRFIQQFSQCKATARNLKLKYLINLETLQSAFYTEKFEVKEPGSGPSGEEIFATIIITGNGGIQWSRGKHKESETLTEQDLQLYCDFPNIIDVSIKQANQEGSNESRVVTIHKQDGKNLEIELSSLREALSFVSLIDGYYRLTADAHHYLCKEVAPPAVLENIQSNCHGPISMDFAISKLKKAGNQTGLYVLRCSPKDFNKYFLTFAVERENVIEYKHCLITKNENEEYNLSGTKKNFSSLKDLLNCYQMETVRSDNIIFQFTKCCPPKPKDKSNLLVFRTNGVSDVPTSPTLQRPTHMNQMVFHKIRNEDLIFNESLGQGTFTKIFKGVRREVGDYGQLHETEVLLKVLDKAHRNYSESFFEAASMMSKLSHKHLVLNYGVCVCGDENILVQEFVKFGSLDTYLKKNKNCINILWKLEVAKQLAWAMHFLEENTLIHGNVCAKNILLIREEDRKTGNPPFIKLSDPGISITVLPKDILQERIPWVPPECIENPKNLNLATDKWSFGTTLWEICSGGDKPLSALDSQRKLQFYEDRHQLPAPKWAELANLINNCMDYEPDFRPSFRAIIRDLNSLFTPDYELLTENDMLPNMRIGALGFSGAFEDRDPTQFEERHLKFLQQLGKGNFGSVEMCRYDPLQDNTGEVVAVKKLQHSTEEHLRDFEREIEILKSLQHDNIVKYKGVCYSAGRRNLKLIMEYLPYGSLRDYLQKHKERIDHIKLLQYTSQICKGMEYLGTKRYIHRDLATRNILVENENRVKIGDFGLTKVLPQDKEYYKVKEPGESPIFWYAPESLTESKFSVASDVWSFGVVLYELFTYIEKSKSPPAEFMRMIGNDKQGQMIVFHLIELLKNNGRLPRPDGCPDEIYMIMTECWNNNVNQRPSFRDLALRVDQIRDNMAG

For `CC(=O)Nc1cc(Oc2ccc3nc(Nc4cccc(C(C)(C)C#N)c4)n4c3c2CCC4)ccn1` [US20240101559, Compound I-2], the IC50 was 4.07 µM.
